Active and inactive are the calls of the source. The rule behind the calls is not given here.
Columns and labels:
[1] = molecular target: T1, Nitric oxide synthase, inducible (Mus musculus) (UniProt P29477); test: Inhibition of iNOS-mediated nitric oxide production in LPS-stimulated mouse RAW 264.7 cells treated 2 hrs before LPS challenge measured after 18 hrs by Griess reaction method relative to control; format: cell-based; parameters: concentration or dose not given beside the values; conditions: concentration not given here
T1 sequence (whole entry): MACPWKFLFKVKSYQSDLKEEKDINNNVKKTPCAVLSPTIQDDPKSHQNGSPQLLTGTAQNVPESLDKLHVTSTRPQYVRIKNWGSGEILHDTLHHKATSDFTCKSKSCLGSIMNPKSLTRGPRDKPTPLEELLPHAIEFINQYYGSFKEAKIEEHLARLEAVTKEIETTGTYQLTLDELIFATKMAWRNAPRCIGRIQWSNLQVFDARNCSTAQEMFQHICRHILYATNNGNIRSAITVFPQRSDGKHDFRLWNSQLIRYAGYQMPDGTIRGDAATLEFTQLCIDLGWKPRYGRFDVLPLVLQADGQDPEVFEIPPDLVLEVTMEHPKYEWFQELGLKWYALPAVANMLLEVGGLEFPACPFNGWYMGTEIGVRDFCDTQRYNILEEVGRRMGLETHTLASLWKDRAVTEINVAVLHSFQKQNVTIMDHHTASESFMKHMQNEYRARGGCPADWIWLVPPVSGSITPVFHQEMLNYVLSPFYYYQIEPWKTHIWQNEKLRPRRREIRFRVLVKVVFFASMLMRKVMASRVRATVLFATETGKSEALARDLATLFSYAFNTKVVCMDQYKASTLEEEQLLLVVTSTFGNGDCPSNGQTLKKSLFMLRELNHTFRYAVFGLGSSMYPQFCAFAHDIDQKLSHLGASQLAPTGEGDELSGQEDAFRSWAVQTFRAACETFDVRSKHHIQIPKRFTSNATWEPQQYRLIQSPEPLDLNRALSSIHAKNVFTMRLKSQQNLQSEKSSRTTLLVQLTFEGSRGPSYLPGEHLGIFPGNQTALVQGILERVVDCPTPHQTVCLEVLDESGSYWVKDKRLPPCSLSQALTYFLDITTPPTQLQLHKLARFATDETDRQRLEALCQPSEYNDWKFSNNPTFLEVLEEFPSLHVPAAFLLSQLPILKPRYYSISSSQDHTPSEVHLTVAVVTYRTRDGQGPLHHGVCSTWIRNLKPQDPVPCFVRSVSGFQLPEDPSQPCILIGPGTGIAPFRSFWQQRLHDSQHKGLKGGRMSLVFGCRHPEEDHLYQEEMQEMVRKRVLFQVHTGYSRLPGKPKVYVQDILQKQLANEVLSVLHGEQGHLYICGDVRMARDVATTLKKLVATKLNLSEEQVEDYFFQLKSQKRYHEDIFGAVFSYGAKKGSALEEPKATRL

RAW264.7 [2] = test: Cytotoxicity against LPS-stimulated mouse RAW264.7 cells after 24 hrs by MTT assay; format: cell-based; conditions: RAW264.7, 24 h
Rattus norvegicus [3] = test: Antiarthritic activity in heat-killed mycobacterium tuberculosis-induced Lewis rat arthritis model assessed as decrease in arthritic score at 50 mg/kg, po QD for 28; format: functional, organism-based; parameters: dose 50 mg/kg
Mus musculus [4] = organism: Mus musculus; conditions: ICR, 10 mg/kg
Description: Antiinflammatory activity against acetic acid-induced vascular permeability in ICR mouse assessed as evans blue peritoneal leakage at 10 mg/kg, ip administered 30 mins before acetic acid challenge measured after 50 mins

RAW264.7 [5] = test: cells; conditions: Mus musculus, RAW264.7, 24 h
Description: Cytotoxicity against mouse RAW264.7 cells after 24 hrs by MTT assay

[6] = molecular target: T2, Prostaglandin G/H synthase 2 (Mus musculus, UniProt Q05769); test: Inhibition of COX2-mediated PGE2 production in LPS-stimulated mouse RAW 264.7 cells after 24 hrs by ELISA; format: cell-based
T2 sequence (Q05769 whole entry): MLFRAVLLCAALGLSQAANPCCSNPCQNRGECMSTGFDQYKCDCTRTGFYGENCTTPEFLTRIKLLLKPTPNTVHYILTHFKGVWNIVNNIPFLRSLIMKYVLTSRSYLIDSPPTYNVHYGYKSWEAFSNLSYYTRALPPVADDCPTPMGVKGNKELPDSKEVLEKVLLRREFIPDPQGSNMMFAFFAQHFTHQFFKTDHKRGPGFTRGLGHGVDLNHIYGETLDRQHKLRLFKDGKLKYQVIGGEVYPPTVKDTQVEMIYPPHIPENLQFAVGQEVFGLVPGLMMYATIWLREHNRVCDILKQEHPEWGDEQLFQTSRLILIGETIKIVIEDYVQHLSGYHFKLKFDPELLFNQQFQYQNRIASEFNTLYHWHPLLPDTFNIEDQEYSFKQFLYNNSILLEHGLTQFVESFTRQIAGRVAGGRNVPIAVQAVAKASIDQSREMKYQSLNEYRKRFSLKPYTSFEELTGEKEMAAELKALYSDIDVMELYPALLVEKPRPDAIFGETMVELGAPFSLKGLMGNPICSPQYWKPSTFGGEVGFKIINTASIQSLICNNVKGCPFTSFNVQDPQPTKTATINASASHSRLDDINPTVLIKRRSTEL

[7] = molecular target: T3, Nitric oxide synthase, inducible (Mus musculus, UniProt P29477)
T3 sequence (P29477 whole entry): T1 sequence (whole entry)
Description: Inhibition of iNOS in LPS-stimulated mouse RAW 264.7 cells after 2 hrs by fluorescence plate reader analysis

[8] = molecular target: T3, Nitric oxide synthase, inducible; remark: listed apart in the source
RAW264.7 [9] = test: Inhibition of LPS-induced iNOS protein expression in mouse RAW264.7 cells treated 2 hrs before LPS challenge measured after 18 hrs by Western blotting; format: functional, cell-based
RAW264.7 [10] = test: Inhibition of LPS-induced COX2 protein expression in mouse RAW264.7 cells at 12 to 24 uM treated 2 hrs before LPS challenge measured after 18 hrs by Western blotting; format: functional, cell-based
Mus musculus [11] = test: Antiinflammatory activity in ICR mouse assessed as inhibition of carrageenan-induced paw edema at 10 mg/kg, po administered 30 mins before carrageenan challenge measured up to 5 hrs; format: functional
Mus musculus [12] = test: Antiinflammatory activity in ICR mouse assessed as inhibition of carrageenan-induced paw edema at 50 mg/kg, po administered 30 mins before carrageenan challenge measured up to 5 hrs; format: functional
Mus musculus [13] = test: Antiinflammatory activity against acetic acid-induced vascular permeability in ICR mouse assessed as evans blue peritoneal leakage at 10 to 50 mg/kg, ip administered 30 mins before acetic acid challenge measured after 50 mins; format: functional, organism-based
Rattus norvegicus [14] = test: Antiarthritic activity in heat-killed mycobacterium tuberculosis-induced Lewis rat arthritis model assessed as increase in boy weight at 50 mg/kg, po QD for 28 relative to control; format: functional
Rattus norvegicus [15] = test: Antiarthritic activity in heat-killed mycobacterium tuberculosis-induced Lewis rat arthritis model assessed as leukocytes infiltreated into synovial tissue and synovial fluid of joints at 50 mg/kg, po QD for 28 using hematoxylin and eosin staining by microscopic analysis; format: functional, organism-based; parameters: dose 50 mg/kg
[16] = Cmax in Sprague-Dawley rat at 50 mg/kg, po; format: ADME, organism-based; parameters: dose 50 mg/kg, route oral; conditions: in vivo
[17] = Cmax in Sprague-Dawley rat at 10 mg/kg, iv; format: ADME, organism-based; parameters: dose 10 mg/kg, route intravenous; conditions: in vivo
[18] = Tmax in Sprague-Dawley rat at 50 mg/kg, po; format: ADME, organism-based; parameters: dose 50 mg/kg, route oral; conditions: in vivo
[19] = Tmax in Sprague-Dawley rat at 10 mg/kg, iv; format: ADME, organism-based; parameters: dose 10 mg/kg, route intravenous; conditions: in vivo
Rattus norvegicus [20] = test: AUC (0 to t) in Sprague-Dawley rat at 50 mg/kg, po; format: ADME, organism-based, Plasma; parameters: dose 50 mg/kg, route oral; conditions: in vivo
Rattus norvegicus [21] = test: AUC (0 to t) in Sprague-Dawley rat at 10 mg/kg, iv; format: ADME, organism-based, Plasma; parameters: dose 10 mg/kg, route intravenous; conditions: in vivo
[22] = Half life in Sprague-Dawley rat at 50 mg/kg, po; format: ADME, organism-based; parameters: dose 50 mg/kg, route oral; conditions: in vivo
[23] = Half life in Sprague-Dawley rat at 10 mg/kg, iv; format: ADME, organism-based; parameters: dose 10 mg/kg, route intravenous; conditions: in vivo
[24] = Oral bioavailability in Sprague-Dawley rat at 50 mg/kg; format: ADME, organism-based; conditions: in vivo

O=C(COc1ccc(/C=C2\SC(=O)NC2=O)cc1)Nc1ccccc1
inhibition [1]: 55.3%

O=C(COc1ccc(/C=C2\SC(=O)NC2=O)cc1)Nc1ccc2ccccc2c1
inhibition [1]: 45.1%

O=C(COc1ccc(/C=C2\SC(=O)NC2=O)cc1)Nc1cccc(F)c1
inhibition [1]: 41.5%

COc1ccc2c(c1)c(CC(=O)O)c(C)n2C(=O)c1ccc(Cl)cc1 [INDOMETHACIN]
inhibition [1]: 63.2%
IC50 (RAW264.7 [2]): > 100 µM
Activity (Rattus norvegicus [3]): Active
inhibition (Mus musculus [4]): Active
IC50 (RAW264.7 [5]): > 100 µM

O=C(COc1ccc(/C=C2\SC(=O)NC2=O)cc1)Nc1cc(Cl)cc(Cl)c1
inhibition [1]: 72%
IC50 [6]: 14.8 µM
IC50 (RAW264.7 [2]): > 100 µM
IC50 [7]: 57.4 µM
IC50 [8]: 26.1 µM
IC50 (RAW264.7 [5]): > 100 µM

O=C(COc1ccc(/C=C2\SC(=O)NC2=O)cc1)Nc1ccc(F)c(Cl)c1
inhibition [1]: 36%

O=C(COc1ccc(/C=C2\SC(=O)NC2=O)cc1)Nc1ccc(Cl)cc1
inhibition [1]: 9.7%

O=C(COc1ccc(/C=C2\SC(=O)NC2=O)cc1)Nc1ccc(Br)cc1
inhibition [1]: 23.7%

O=C(COc1ccc(/C=C2\SC(=O)NC2=O)cc1)Nc1ccc(C(F)(F)F)cc1
inhibition [1]: 26.6%

O=C(COc1ccc(/C=C2\SC(=O)NC2=O)cc1)Nc1cccc(Cl)c1
inhibition [1]: 80.9%
IC50 [6]: 4.16 µM
IC50 (RAW264.7 [2]): > 100 µM
inhibition (RAW264.7 [9]): Dose-dependent effect
inhibition (RAW264.7 [10]): Active
inhibition (Mus musculus [11]): Active
inhibition in vivo at 10 mg/kg (Mus musculus [11]): 33.3%
inhibition in vivo at 50 mg/kg (Mus musculus [12]): 36.2%
inhibition (Mus musculus [13]): inactive
Activity (Rattus norvegicus [14]): 15.1%
Activity (Rattus norvegicus [15]): Active
Cmax [16]: 15.3 µM
Cmax [17]: 27 µM
Tmax [18]: 10.8 min
Tmax [19]: 4.8 min
AUC (Rattus norvegicus [20]): 10 uM.hr/L
AUC (Rattus norvegicus [21]): 11.05 uM.hr/L
half-life [22]: 130 min
half-life [23]: 16.8 min
bioavailability [24]: 18.1%
IC50 [7]: 23.6 µM
IC50 [8]: 8.66 µM
IC50 (RAW264.7 [5]): > 100 µM

O=C(COc1ccc(/C=C2\SC(=O)NC2=O)cc1)NC1CCCCC1
inhibition [1]: 47.8%

CN(C(=O)COc1ccc(/C=C2\SC(=O)NC2=O)cc1)c1ccccc1
inhibition [1]: 51%

O=C(COc1ccc(/C=C2\SC(=O)NC2=O)cc1)Nc1ccc(F)c(F)c1
inhibition [1]: 83.9%
IC50 [6]: 7.12 µM
IC50 (RAW264.7 [2]): > 100 µM
IC50 [7]: 34.1 µM
IC50 [8]: 13.9 µM
IC50 (RAW264.7 [5]): > 100 µM

O=C(COc1ccc(/C=C2\SC(=O)NC2=O)cc1)NCc1ccccc1
inhibition [1]: 41.6%

COc1ccc(NC(=O)COc2ccc(/C=C3\SC(=O)NC3=O)cc2)cc1OC
inhibition [1]: 16.2%

CC(=O)c1ccc(NC(=O)COc2ccc(/C=C3\SC(=O)NC3=O)cc2)cc1
inhibition [1]: 10.2%

O=C(COc1ccc(/C=C2\SC(=O)NC2=O)cc1)Nc1ccc(F)cc1
inhibition [1]: 57.9%

O=C(COc1ccc(/C=C2\SC(=O)NC2=O)cc1)Nc1ccccn1
inhibition [1]: 14.6%

O=C(COc1ccc(/C=C2\SC(=O)NC2=O)cc1)Nc1cccc2ccccc12
inhibition [1]: 70.9%
IC50 [6]: 16.1 µM
IC50 (RAW264.7 [2]): 55 µM
IC50 [7]: 40 µM
IC50 [8]: 20.9 µM
IC50 (RAW264.7 [5]): 62.3 µM

O=C(COc1ccc(/C=C2\SC(=O)NC2=O)cc1)Nc1ccc(Cl)cc1Cl
inhibition [1]: 10%

Cc1ccc(NC(=O)COc2ccc(/C=C3\SC(=O)NC3=O)cc2)cc1
inhibition [1]: 38.4%

Cc1ccc(NC(=O)COc2ccc(/C=C3\SC(=O)NC3=O)cc2)nc1
inhibition [1]: 12.5%

COc1ccc(NC(=O)COc2ccc(/C=C3\SC(=O)NC3=O)cc2)cc1
inhibition [1]: 0.6%
